Numbers after ± are expanded uncertainties.
Conditions: for viscosity: 101.3 kPa; for viscosity / mass density: Liquid; for surface tension liquid-gas: Ring tensiometer

CCO [ethanol]
Conditions	surface tension liquid-gas [mN/m]	viscosity [mPa·s]
273.15 K	–	1.832 ± 0.042
274.77 K	23.59 ± 0.35	–
274.87 K	23.54 ± 0.35	–
278.6 K	–	1.649 ± 0.039
280.56 K	23.15 ± 0.35	1.537 ± 0.036
281.05 K	22.95 ± 0.35	–
281.17 K	23.09 ± 0.35	1.527 ± 0.036
284.25 K	22.78 ± 0.34	1.455 ± 0.034
288.21 K	22.7 ± 0.34	1.338 ± 0.032
288.23 K	22.61 ± 0.34	–
288.65 K	22.63 ± 0.34	–
293.15 K	22.36 ± 0.34	1.203 ± 0.029
294.19 K	22.4 ± 0.34	1.192 ± 0.029
298.15 K	22.25 ± 0.34	1.096 ± 0.027
298.41 K	22.07 ± 0.33	1.088 ± 0.027
298.55 K	22.06 ± 0.33	1.088 ± 0.027
303.15 K	21.63 ± 0.33	1.002 ± 0.025
303.2 K	21.66 ± 0.33	1 ± 0.025
308.23 K	21.33 ± 0.33	0.914 ± 0.023
311.79 K	21.09 ± 0.32	0.855 ± 0.022
318.99 K	20.2 ± 0.31	0.756 ± 0.019
321.15 K	–	0.73 ± 0.019
323.15 K	–	0.715 ± 0.019
328.15 K	–	0.656 ± 0.017
333.15 K	–	0.602 ± 0.016
338.16 K	–	0.571 ± 0.015
343.15 K	–	0.504 ± 0.014
346.15 K	–	0.488 ± 0.014

Conditions	mass density [kg/m3]
278.15 K, 100 kPa	803.3 ± 1.3
278.15 K, 2000 kPa	805.9 ± 1.3
278.15 K, 4000 kPa	807.3 ± 1.4
278.15 K, 6000 kPa	809.2 ± 1.5
278.15 K, 8000 kPa	810.6 ± 1.6
278.15 K, 10000 kPa	812.7 ± 1.6
278.15 K, 15000 kPa	815.8 ± 1.8
278.15 K, 20000 kPa	821 ± 2
278.15 K, 25000 kPa	823.4 ± 2.2
278.15 K, 30000 kPa	823.8 ± 2.4
278.15 K, 35000 kPa	825.8 ± 2.7
283.15 K, 100 kPa	799.5 ± 1.3
283.15 K, 2000 kPa	801.7 ± 1.4
283.15 K, 4000 kPa	803 ± 1.4
283.15 K, 6000 kPa	805.1 ± 1.5
283.15 K, 8000 kPa	806.6 ± 1.6
283.15 K, 10000 kPa	808.5 ± 1.7
283.15 K, 15000 kPa	811.8 ± 1.9
283.15 K, 20000 kPa	816.4 ± 2.1
283.15 K, 25000 kPa	818.9 ± 2.3
283.15 K, 30000 kPa	819.9 ± 2.5
283.15 K, 35000 kPa	822.2 ± 2.7
288.15 K, 100 kPa	795.3 ± 1.3
288.15 K, 2000 kPa	797.5 ± 1.4
288.15 K, 4000 kPa	798.8 ± 1.4
288.15 K, 6000 kPa	800.9 ± 1.5
288.15 K, 8000 kPa	802.6 ± 1.6
288.15 K, 10000 kPa	804.2 ± 1.7
288.15 K, 15000 kPa	807.8 ± 1.9
288.15 K, 20000 kPa	811.9 ± 2.1
288.15 K, 25000 kPa	814.5 ± 2.3
288.15 K, 30000 kPa	816 ± 2.5
288.15 K, 35000 kPa	818.6 ± 2.8
293.15 K, 100 kPa	791.2 ± 1.3
293.15 K, 2000 kPa	793.2 ± 1.4
293.15 K, 4000 kPa	794.5 ± 1.4
293.15 K, 6000 kPa	796.7 ± 1.5
293.15 K, 8000 kPa	798.5 ± 1.6
293.15 K, 10000 kPa	800 ± 1.7
293.15 K, 15000 kPa	803.7 ± 1.9
293.15 K, 20000 kPa	807.4 ± 2.1
293.15 K, 25000 kPa	810.2 ± 2.3
293.15 K, 30000 kPa	812.2 ± 2.6
293.15 K, 35000 kPa	814.9 ± 2.8
298.15 K, 100 kPa	785 ± 1.3
298.15 K, 2000 kPa	788.8 ± 1.4
298.15 K, 4000 kPa	790.3 ± 1.5
298.15 K, 6000 kPa	792.5 ± 1.5
298.15 K, 8000 kPa	794.3 ± 1.6
298.15 K, 10000 kPa	795.8 ± 1.7
298.15 K, 15000 kPa	799.7 ± 1.9
298.15 K, 20000 kPa	803.1 ± 2.1
298.15 K, 25000 kPa	806 ± 2.4
298.15 K, 30000 kPa	808.3 ± 2.6
298.15 K, 35000 kPa	811.3 ± 2.9
303.15 K, 100 kPa	781.6 ± 1.3
303.15 K, 2000 kPa	784.4 ± 1.4
303.15 K, 4000 kPa	785.9 ± 1.5
303.15 K, 6000 kPa	788.2 ± 1.6
303.15 K, 8000 kPa	790.2 ± 1.6
303.15 K, 10000 kPa	791.6 ± 1.7
303.15 K, 15000 kPa	795.6 ± 2
303.15 K, 20000 kPa	798.8 ± 2.2
303.15 K, 25000 kPa	801.8 ± 2.4
303.15 K, 30000 kPa	804.5 ± 2.7
303.15 K, 35000 kPa	807.6 ± 2.9
308.15 K, 100 kPa	777.9 ± 1.3
308.15 K, 2000 kPa	780 ± 1.4
308.15 K, 4000 kPa	781.6 ± 1.5
308.15 K, 6000 kPa	783.9 ± 1.6
308.15 K, 8000 kPa	785.9 ± 1.7
308.15 K, 10000 kPa	787.3 ± 1.7
308.15 K, 15000 kPa	791.5 ± 2
308.15 K, 20000 kPa	794.7 ± 2.2
308.15 K, 25000 kPa	797.8 ± 2.4
308.15 K, 30000 kPa	800.7 ± 2.7
308.15 K, 35000 kPa	803.9 ± 3
313.15 K, 100 kPa	774 ± 1.3
313.15 K, 2000 kPa	775.4 ± 1.4
313.15 K, 4000 kPa	777.2 ± 1.5
313.15 K, 6000 kPa	779.5 ± 1.6
313.15 K, 8000 kPa	781.7 ± 1.7
313.15 K, 10000 kPa	783.1 ± 1.8
313.15 K, 15000 kPa	787.4 ± 2
313.15 K, 20000 kPa	790.6 ± 2.2
313.15 K, 25000 kPa	793.8 ± 2.5
313.15 K, 30000 kPa	797 ± 2.8
313.15 K, 35000 kPa	800.2 ± 3
318.15 K, 100 kPa	769.7 ± 1.3
318.15 K, 2000 kPa	770.8 ± 1.4
318.15 K, 4000 kPa	772.8 ± 1.5
318.15 K, 6000 kPa	775.1 ± 1.6
318.15 K, 8000 kPa	777.3 ± 1.7
318.15 K, 10000 kPa	778.8 ± 1.8
318.15 K, 15000 kPa	783.2 ± 2
318.15 K, 20000 kPa	786.5 ± 2.3
318.15 K, 25000 kPa	789.9 ± 2.5
318.15 K, 30000 kPa	793.2 ± 2.8
318.15 K, 35000 kPa	796.5 ± 3.1
323.15 K, 100 kPa	765.2 ± 1.3
323.15 K, 2000 kPa	766.2 ± 1.4
323.15 K, 4000 kPa	768.4 ± 1.5
323.15 K, 6000 kPa	770.7 ± 1.6
323.15 K, 8000 kPa	772.9 ± 1.7
323.15 K, 10000 kPa	774.5 ± 1.8
323.15 K, 15000 kPa	779 ± 2.1
323.15 K, 20000 kPa	782.6 ± 2.3
323.15 K, 25000 kPa	786.1 ± 2.6
323.15 K, 30000 kPa	789.5 ± 2.9
323.15 K, 35000 kPa	792.8 ± 3.1
328.15 K, 100 kPa	760.4 ± 1.4
328.15 K, 2000 kPa	761.5 ± 1.4
328.15 K, 4000 kPa	763.9 ± 1.5
328.15 K, 6000 kPa	766.2 ± 1.6
328.15 K, 8000 kPa	768.5 ± 1.7
328.15 K, 10000 kPa	770.3 ± 1.8
328.15 K, 15000 kPa	774.8 ± 2.1
328.15 K, 20000 kPa	778.7 ± 2.3
328.15 K, 25000 kPa	782.3 ± 2.6
328.15 K, 30000 kPa	785.7 ± 2.9
328.15 K, 35000 kPa	789 ± 3.2
333.15 K, 100 kPa	755.4 ± 1.4
333.15 K, 2000 kPa	756.7 ± 1.5
333.15 K, 4000 kPa	759.4 ± 1.6
333.15 K, 6000 kPa	761.6 ± 1.7
333.15 K, 8000 kPa	764 ± 1.7
333.15 K, 10000 kPa	766 ± 1.8
333.15 K, 15000 kPa	770.6 ± 2.1
333.15 K, 20000 kPa	774.9 ± 2.4
333.15 K, 25000 kPa	778.6 ± 2.7
333.15 K, 30000 kPa	782 ± 3
333.15 K, 35000 kPa	785.2 ± 3.2
338.15 K, 100 kPa	750 ± 1.4
338.15 K, 2000 kPa	751.8 ± 1.5
338.15 K, 4000 kPa	754.9 ± 1.6
338.15 K, 6000 kPa	757 ± 1.7
338.15 K, 8000 kPa	759.5 ± 1.8
338.15 K, 10000 kPa	761.7 ± 1.9
338.15 K, 15000 kPa	766.3 ± 2.1
338.15 K, 20000 kPa	771.2 ± 2.4
338.15 K, 25000 kPa	775 ± 2.7
338.15 K, 30000 kPa	778.3 ± 3
338.15 K, 35000 kPa	781.4 ± 3.3
343.15 K, 100 kPa	744.3 ± 1.4
343.15 K, 2000 kPa	746.8 ± 1.5
343.15 K, 4000 kPa	750.3 ± 1.6
343.15 K, 6000 kPa	752.3 ± 1.7
343.15 K, 8000 kPa	754.9 ± 1.8
343.15 K, 10000 kPa	757.3 ± 1.9
343.15 K, 15000 kPa	762 ± 2.2
343.15 K, 20000 kPa	767.6 ± 2.4
343.15 K, 25000 kPa	771.5 ± 2.7
343.15 K, 30000 kPa	774.6 ± 3
343.15 K, 35000 kPa	777.6 ± 3.4
348.15 K, 100 kPa	738.4 ± 1.4
348.15 K, 2000 kPa	741.8 ± 1.5
348.15 K, 4000 kPa	745.6 ± 1.6
348.15 K, 6000 kPa	747.6 ± 1.7
348.15 K, 8000 kPa	750.2 ± 1.8
348.15 K, 10000 kPa	753 ± 1.9
348.15 K, 15000 kPa	757.7 ± 2.2
348.15 K, 20000 kPa	764 ± 2.4
348.15 K, 25000 kPa	768 ± 2.8
348.15 K, 30000 kPa	770.9 ± 3.1
348.15 K, 35000 kPa	773.7 ± 3.4
353.15 K, 2000 kPa	736.7 ± 1.5
353.15 K, 4000 kPa	741 ± 1.6
353.15 K, 6000 kPa	742.8 ± 1.7
353.15 K, 8000 kPa	745.5 ± 1.8
353.15 K, 10000 kPa	748.6 ± 1.9
353.15 K, 15000 kPa	753.3 ± 2.2
353.15 K, 20000 kPa	760.5 ± 2.5
353.15 K, 25000 kPa	764.6 ± 2.8
353.15 K, 30000 kPa	767.2 ± 3.1
353.15 K, 35000 kPa	769.9 ± 3.5

— the NIST ThermoML archive (doi:10.1016/j.jct.2010.03.022)
